Measurements as given in patent US20080227222A1, “Method for the detection of target molecules by fluorescence polarization using peptide mimics” (priority 2007, published 2008).

Legend:
[1] = tested on: anti-cortisol antibody (ACA); experiment: Competition ELISA: increasing cortisol against plate-coated phagotope for anti-cortisol antibody; assay type: binding; details: increasing amounts of cortisol, constant phage, FIG. 3
Description: Plates were coated with phagotopes and blocked as for the direct ELISA. […] Increasing amounts of cortisol was then added to 100 μl of specific antibody in 1% PBS-polyoxyethylene (20) sorbitan monolaurate. 100 μl replicates (4-6) of antibody/cortisol inhibitor was then left overnight.
The plates were washed and developed as for the direct ELISA. The results of these studies are illustrated in FIG. 3.

[2] = tested on: anti-cortisol antibody (ACA); experiment: ELISA binding of phagotopes to anti-cortisol antibody (biopanning screen); details: phagotope expressing peptide, FIG. 2
Description: Identification of reactive phagotopes was conducted by either direct, where the phagotopes are coated directly to the plate, or capture ELISA, were the phagotopes are tethered to the plate via the selection antibody. The two ELISA methods were employed because direct ELISA identifies highly reactive phagotopes that are likely to contain a strong motif, whereas the capture ELISA is more sensitive, therefore also selecting for phagotopes involving only weak interactions. For the direct ELISA, phage preparations were diluted in sterile PBS and duplicate samples of 100 μl/well were added to a 96-well microtitre plate. Plates were left overnight at 4° C., blocked for 2 hours at room temperature with 1% skimmed milk powder and 0.05% Tween 20 in PBS ph 7.4 and washed three times in Tris-buffered saline, pH 7.4, containing 0.05% polyoxyethylene (20) sorbitan monolaurate (TWEEN 20™). 100 μl of specific antibody diluted to 1 μg/ml in 1% PBS-polyoxyethylene (20) sorbitan monolaurate were added and left overnight. […] Absorbances were read at 415 nm after 30 minutes and 60 minutes. […]

[3] = tested on: anti-gamma-interferon antibody; experiment: Competition ELISA: increasing gamma-interferon against constant phage containing peptide mimic; assay type: binding; details: constant phage containing the mimic, detected with anti-phage antibody
Description: In order to identify peptide mimics, the procedure for described in Example 1 was followed. FA42™ anti-Gamma-interferon monoclonal antibody (Cellestis, Inc, Valencia, Calif.) was used in the screening of peptide mimics.
Identification of epitope sites that the peptides represented were then determined by comparing the peptide sequences with the known γ-interferon sequence. The identified peptides were then evaluated by the ability of gamma-interferon to inhibit binding of anti-γ-interferon antibody in ELISA. The results of this study is illustrated in FIG. 3 for peptide IFN-28. […] Phage binding was identified, in this study, using a specific anti-phage antibody.

[4] = tested on: anti-γ-interferon antibody (FA42); experiment: Competition of fluorescently tagged peptides with IFN-41 expressing phage for binding to FA42; details: fluorescently tagged peptide against phage
Description: Further analysis of the peptide mimics sought to ascertain whether these peptides operated in the same manner as they do when expressed on the surface of the phage. In order to ascertain if these peptides operated in the same manner as they do when expressed on the surface of the phage, a competition assay was performed. In this assay, the newly created peptides were used to compete with the peptides on the surface of the phage for binding to FA42.
A gradient of inhibition of IFN-41 expressing phage binding by the two peptides is shown. The control peptide (ACA-20) is a mimic of cortisol. […] Additionally, FIG. 5 illustrates gradient inhibition of IFN-41 and IFN-19 using anti-gamma-interferon antibody.

competition with IFN-41 expressing phage for binding to anti-γ-interferon antibody [4] | Substance | competition by cortisol for antibody binding [1] | anti-cortisol antibody binding [2] | further results
 | ACA 20 (1): phagotope expressing peptide with high anti-cortisol antibody binding; probably clone of ACA-20 (YFTPVFINPTQV) | overlapping, dose-response competitive binding curves | comparatively high anti-cortisol antibody binding | 
 | ACA 20 (2): phagotope expressing peptide with high anti-cortisol antibody binding; probably clone of ACA-20 (YFTPVFINPTQV) | overlapping, dose-response competitive binding curves | comparatively high anti-cortisol antibody binding | 
 | SQYENNH (CSQYENNHC; listed as Homo sapiens) [IFN-28] |  |  | competition for binding to anti-gamma-interferon antibody [3]: graded competition
competed | TQYEQHY (CTQYEQHYC; listed as Homo sapiens) [IFN-41] |  |  | 
competed | TQYSQQM (CSQYSQLYC) [IFN-19] |  |  | 
did not compete | YFTPVFINPTQV (listed as Homo sapiens) [ACA-20, control peptide in the gamma-interferon assay] |  |  | 
